Among the data in ChEMBL document CHEMBL1131834, “Synthesis and antitumoral activities of marine ent-chromazonarol and related compounds” (Bioorg Med Chem Lett, 1999) are IC50 values, retold here.

Holding throughout (assay type): functional, cell-based
For one assay, the system named is A549. As to the kind of experiment: Antitumoral activity was assayed against A-549 cell line. Particulars: Homo sapiens.
The subject of another assay is SK-MEL-28. Put plainly: Antitumoral activity was assayed against MEL-28 cell line. Particulars: Homo sapiens.
The test system of the next assay is P388. Put plainly: Antitumoral activity was assayed against P-388 cell line. Particulars: Mus musculus.
A further assay relates to HT-29. Put plainly: Antitumoral activity was assayed against HT-29 cell line. Particulars: Homo sapiens.

One may read the pIC50 as −log10 of the IC50, conventionally taken in molar units. A higher pIC50 goes with a low IC50.

pIC50: −log10 of the molar value.

Turning to `CC1(C)CCC[C@@]2(C)C1CC[C@@]1(C)Oc3ccc(O)cc3C[C@@H]12` (some centres not stated), the pIC50 in the assay on A549, with SK-MEL-28, in the assay with P388 and with HT-29 was 4.80 throughout.
Consider `CC1=CCC2C(C)(C)CCC[C@]2(C)[C@H]1Cc1cc(O)ccc1O` (some centres not stated), for which the pIC50 with A549 was 6.10; in the assay with SK-MEL-28 it was 6.10; in the assay with P388, 6.80; with HT-29 it was 6.10.
For `CC1=CCC2C(C)(C)CCC[C@]2(C)[C@H]1CC1=CC(=O)C=CC1=O` (some centres not stated), the pIC50 is 5.49 in the assay on A549, 5.49 in the assay with SK-MEL-28, 6.10 with P388 and 5.49 in the assay with HT-29.
